Data on 5 molecules can be found in US10513529B2, “1,2,4-triazolo-[3,4-b]-1,3,4-thiadiazole derivatives” (GALENICA S.A., priority 2016, dated 2019).

A word on the GI50: it is the concentration giving 50% growth inhibition. Lower therefore signals greater sensitivity of the cells. Broadly, the IC50 is the midpoint of a concentration-inhibition curve. Read a low IC50 as higher potency. As a reminder, the TGI is the concentration at which net growth stops. A higher TGI goes with less potent growth arrest. What is called LD50 is the dose expected to kill half of the subjects tested. A higher LD50 goes with a less toxic substance.

Data set [1] concerns SKOV-3 human ovarian cancer cell line. The data set can be described thus: MTT cytostatic-cytotoxic activity, SKOV-3. The data set is classed as cell-based. The following applies: for GI50 / IC50: Homo sapiens, SK-OV-3, SKOV-3, 48 h treatment; for IC50: kills 50% of the cells; for TGI: SKOV-3, 48 h treatment. As to the method: SKOV-3 (SKOV-3) (ATCC HTB 77) and OVCAR-3 (ATCC® HTB-161™)
Human ovarian adenocarcinoma cells, which are grown easily in monolayer culture with epithelial-like morphology. SKOV-3 are resistant to tumor necrosis factor (TNF) and to other cytotoxic drugs such as cisplatin, and adriamycin, while OVCAR-3 are resistant to adriamycin, cisplatin and melphalan. These cell lines express androgens, estrogens and progesterone receptors. When SKOV-3 or OVCAR-3 cells are subcutaneously implanted in nude mice, SCID mice, a moderately differentiated tumor develops, and the resulting model resembles primary ovarian adenocarcinoma in humans.
(§1) All cancer cell lines are stored in a liquid nitrogen tank in 2.5 ml cryovials (Corning-Costar, Cambridge, Mass.). DMSO (dimethylsulfoxide) act as a cryoprotectant and is added to prevent the formation of ice crystals which may lyse the cells. The Cells were grown as monolayer cultures in T-75 flasks (Corning-Costar, Cambridge, Mass.) and maintained at 37° C. in 5% CO2 incubator & 100% relative humidity. The cultures medium used are McCoy's 5a Medium, supplemented with 10% fetal bovine serum (FBS, Gibco) and 1% antibiotics (100 IU/ml penicillin/100 µg/ml streptomycin), sterilized by filtration (Corning-Costar filter, diameter 0.2 μm, RPMI-1640 and 50% RPMI-1640 (Catalog No 30-2001) plus 50% Mammary Epithelial Growth Medium (MEGM), supplemented with 10% fetal bovine serum (FBS, Gibco) and 1% antibiotics (100 IU/ml penicillin/100 μg/ml streptomycin). The passage is performed every 3-4 to days as follows: Cells are washed with sterile PBS (Phosphate buffered saline): 8 g/l NaCl, 0,2 g/l KCl, 1,15 g/l Na2HPO4καl 0,2 g/l KH2PO4. pH:7,4), add 2-3 ml 0.05% trypsin (Gibco 1:250) and 0.02% EDTA to cover the monolayer and incubate the flask at 3TC for 5-10 minutes. Trypsin-EDTA, is used mainly to detach the cells from the flask and prepare a single cell suspension. Finally, the number of cells can be determined by direct counting using a Neubauer chamber and cell viability is determined by staining the cells with trypan blue.
(§2) In the experimental study the in vitro effect of the compound type (I) was evaluated against ovarian cancer cell lines UWB1.289, UWB1.289+BRCA1 Kai SKOV-3.The cells were plated in 96-well plate (MTP) at a density of 1×10^4cells/m1 per well and maintained for 72 h at 3TC in a 5% CO2 incubator and grown as monolayers. The selection of the initial number of cells was made according to the rate of proliferation of the cell line, in order the cells throughout the experiment are in an exponential (log) growth phase. After 24 hours, cells were treated with 1-100 μmol/l of the tested compounds for 48 h. Experiments were carried out using triplicate wells. The viability of cultured cells was estimated by an (3-(4,5-imethylthiazol-2-yl)-2,5-diphenyltetrazolium bromide (MTT) metabolic assay as described previously (Finlay G J, Wilson W R and Baguley B C: Comparison of in vitro activity of cytotoxic drugs towards human carcinoma and leukaemia cell lines. Eur J Cancer Clin Oncol 22: 655-662, 1986; Alley M C, Scudiero D A, Monks A, Hursey M L, Czerwinski M J, Fine D L, et al. Feasibility of drug screening with panels of human tumor cell lines using a microculture tetrazolium assay. Cancer Res 1988; 48:589-601). MTT (Sigma, St Louis, Mo., USA) was dissolved in PBS in a concentration of 5 mg/ml, filter sterilized, and stored at 4° C. MTT (50 μl of stock solution) was added to each culture and incubated for 3 h at 3TC to allow metabolization. Formazan crystals were solubilized by DMSO (100 μl). Absorbance of the converted dye was measured at a wavelength of 540nm on ELISA reader (BioTek, Winooski, Vt., USA).
(§3) GI50: The mean concentration that causes 50% inhibition of cell growth (Growth Inhibition 50%). The calculation of the value is based on the formula: (Tt72x)−(Ct24)/(Ct72)-(Ct24)×100=50
TGI: The mean concentration that causes 100% inhibition of cell growth (Total Growth Inhibition). […]

In data set [2] the test system is UWB1.289 human ovarian cancer cell line (mutant BRCA1). As to the kind of experiment: MTT cytostatic-cytotoxic activity, UWB1.289. Conditions: for GI50 / IC50: Homo sapiens; for GI50: UWB1289, 48 h; for GI50 / TGI: UWB1.289, 48 h treatment; for IC50: UWB1289, UWB1.289, 48 h treatment, kills 50% of the cells. It is filed as cell-based. As for the experimental part: Also, UWB1.289 cells have mutated the p53 tumor suppressor gene and positive Wilms' tumor protein (WT) expression, have no functional BRCA1 gene and are positive for the expression of cytokeratin 7 (CK-7), calretinin and Wilms' tumor protein (WT). Finally they are sensitive to ionizing radiation.
as §1, §2, §3
TGI: The mean concentration that causes 100% inhibition of cell growth (Total Growth Inhibition). The value is calculated according to the formula: (Tt72x)−(Ct24)/(Ct72)−(Ct24)×100=0
IC50: The mean concentration that kills 50% of the cells (Inhibition Concentration 50%). The value is calculated according to the formula: (Tt72x)−(Ct24)/(Ct24)×100=[…]

In data set [3] the test system is MCF-7 human breast cancer cell line. As to the kind of experiment: MTT cytostatic-cytotoxic activity, MCF-7. The following applies: for GI50 / IC50: Homo sapiens; for GI50: MCF7, 48 h; for GI50 / TGI: MCF-7, 48 h treatment; for IC50: MCF7, MCF-7, 48 h treatment, kills 50% of the cells. It is filed as cell-based.
Data set [4] deals with PC-3 human hormone-resistant prostate cancer cell line. The data set can be described thus: MTT cytostatic-cytotoxic activity, PC-3. It is filed as cell-based. Conditions: PC-3, 48 h treatment; for GI50 / IC50: Homo sapiens; for IC50: kills 50% of the cells.
Data set [5] deals with MOLT-4 human acute T-leukemia cell line. The data set can be described thus: MTT cytostatic-cytotoxic activity, MOLT-4. The following applies: MOLT-4, 48 h treatment; for GI50 / IC50: Homo sapiens; for IC50: kills 50% of the cells. The data set is classed as cell-based.
In data set [6] the test system is A-549 human lung carcinoma cell line. The data set can be described thus: MTT cytostatic-cytotoxic activity, A-549. The data set is classed as cell-based. Conditions: for TGI: A-549, 48 h treatment; for GI50 / IC50: Homo sapiens, A549, A-549, 48 h treatment; for IC50: kills 50% of the cells.
Data set [7] can be described thus: in vivo. The following applies: both sexes, mouse, in vivo, ip; C57BI/6 mice, acute toxicity. As for the experimental part: (§4) The acute toxicity of the compounds was assessed from lethality by testing different concentrations, starting at 100mg/kg. […] For intraperitoneal (i.p.) treatment, stock solutions of the tested compounds were prepared immediately before use. They were suspended in corn oil in the desired concentration following initial dissolution in 10% dimethylsulfoxide (DMSO). C57BI/6 male and female were used for toxicity studies. Mice were kept under conditions of constant temperature and humidity in sterile cages with water and food.

Data set [8] concerns C57BI/6 mice. As to the kind of experiment: in vivo. The following applies: i.p., acute toxicity. As to the method: as §4

Take `COc1cc(Cc2nnc3sc(/C=C/c4ccc(F)cc4)nn23)c(S(=O)(=O)N(C)C)cc1OC` [TS25, 3-[2-(N,N-dimethylsulfamoyl)-4,5-dimethoxybenzyl]-6-(E)-4-fluorostyryl-1,2,4-triazolo[3,4-b]-1,3,4-thiazole]: the GI50 stood at 18 µM in data set [1]; 2 µM in data set [2]; 16 µM in data set [3]; 8 µM in data set [4]; 16 µM in data set [5]; 11 µM in data set [6]. The IC50 amounted to 80 µM in data set [1]; 60 µM in data set [2]; 86 µM in data set [3]; 69 µM in data set [4]; 78 µM in data set [5]; 87 µM in data set [6]. In addition, the TGI in data set [1] is 52 µM; in data set [2], 4 µM; in data set [3] it was 51 µM; in data set [4] it was 24 µM; in data set [5], 29 µM; in data set [6] it was 56 µM. In data set [7], this molecule yielded an LD50 of 345 mg/kg. Also, the LD10 in data set [8] is listed as greater than 500 mg/kg.

In the case of `COc1cc(Cc2nnc3sc(/C=C/c4ccc(Cl)cc4)nn23)c(S(=O)(=O)N(C)C)cc1OC` [TS26, 3-[2-(N,N-dimethylsulfamoyl)-4,5-dimethoxybenzyl]-6-(E)-4-chlorostyryl-1,2,4-triazolo[3,4-b]-1,3,4-thiazole], the GI50 in data set [1] was determined as 38 µM; in data set [2], 8 µM; in data set [3], 25 µM; in data set [4], 19 µM; in data set [5] it was 32 µM; in data set [6], 20 µM. Also, the IC50 is greater than 100 µM in data set [1]; 72 µM in data set [2]; greater than 100 µM in data set [3]; 86 µM in data set [4]; greater than 100 µM in data set [5]; greater than 100 µM in data set [6]. In addition, the TGI is 72 µM in data set [1]; 21 µM in data set [2]; 67 µM in data set [3]; 47 µM in data set [4]; 81 µM in data set [5]; 90 µM in data set [6]. In data set [7], the LD50 was determined as 365 mg/kg. In data set [8], this molecule had an LD10 greater than 500 mg/kg.

For `COc1ccc(Cc2nn3c(Cc4cc(OC)c(OC)cc4S(=O)(=O)N(C)C)nnc3s2)cc1` [TS50, 3-[2-(N,N-dimethylsulfamoyl)-4,5-dimethoxybenzyl]-6-(4-methoxybenzyl)-1,2,4-triazolo[3,4-b]-1,3,4-thiazole], the GI50 in data set [1] amounted to 6 µM; in data set [2], 30 µM; in data set [3] it was 40 µM; in data set [4] it was 44 µM; in data set [5], 10 µM; in data set [6] it was 35 µM. Also, the IC50 in data set [1], in data set [2], in data set [3], in data set [4], in data set [5] and in data set [6] was greater than 100 µM in each case. Also, the TGI in data set [1], in data set [2], in data set [3], in data set [4], in data set [5] and in data set [6] was greater than 100 µM each time. Moreover, the LD50 in data set [7] and in data set [8] was greater than 500 mg/kg each time. In addition, the LD10 in data set [8] was greater than 500 mg/kg.

In the case of `COc1cc(Cc2nnc3sc(-c4ccccc4N)nn23)c(S(=O)(=O)N(C)C)cc1OC` [TS57, 3-[2-(N,N-dimethylosulfamoyl)-4,5-dimethoxybenzyl]-6-(2-aminophenyl)-1,2,4-triazolo[3,4-b]-1,3,4-thiazole], the GI50 is greater than 100 µM in data set [1]; greater than 100 µM in data set [2]; greater than 100 µM in data set [3]; greater than 100 µM in data set [4]; 94 µM in data set [5]; greater than 100 µM in data set [6]. In addition, the IC50 in data set [1], in data set [2], in data set [3], in data set [4], in data set [5] and in data set [6] was greater than 100 µM throughout. Besides, the TGI in data set [1], in data set [2], in data set [3], in data set [4], in data set [5] and in data set [6] was greater than 100 µM each time. Besides, the 50% lethal dose (LD50) in data set [7] and in data set [8] was greater than 500 mg/kg throughout. This molecule also yielded an LD10 in data set [8] greater than 500 mg/kg.

With `COc1cc(Cc2nnc3sc(Cc4ccccc4)nn23)c(S(=O)(=O)N(C)C)cc1OC` [TS62, 3-[2-(N,N-dimethylsulfamoyl)-4,5-dimethoxybenzyl]-6-benzyl-1,2,4-triazolo[3,4-b]-1,3,4-thiazole], the GI50 in data set [1] was 12 µM; in data set [2], 13 µM; in data set [3], 18 µM; in data set [4] it was 27 µM; in data set [5], 7 µM; in data set [6], 15 µM. Further, the half-inhibitory concentration (IC50) in data set [1], in data set [2], in data set [3], in data set [4], in data set [5] and in data set [6] was greater than 100 µM each time. In addition, the TGI in data set [1] is 56 µM; in data set [2], greater than 100 µM; in data set [3], greater than 100 µM; in data set [4], greater than 100 µM; in data set [5], 55 µM; in data set [6], 71 µM. The same molecule displayed a median lethal dose (LD50) in data set [7] of 480 mg/kg. For the same molecule, the LD10 in data set [8] is reported as greater than 500 mg/kg.
